Blank lines part the entries; values can stand above or below the compound they belong to. Where a SMILES comes first, the peptide text is derived from it. [ ]: non-standard residue; d: D form. Arg(Me) = CNC(=N)NCCC[C@H](N)C(=O)O; d3Pal = N[C@H](Cc1cccnc1)C(=O)O; azaGly = NNC(=O)O
Tests used:
KiSS-1 receptor = KiSS-1 receptor (Homo sapiens, UniProt Q969F8); test: Affinity Phenotypic Cellular interaction: (Agonist activity for hGPR54 (C-terminal ethyl amide)) EUB0001072a KISS1R; assay type: functional; parameters: mode of action Negative control for KISS1-305, recommended concentration 1 uM
[1] = biological target: Cyclin-dependent kinase 13 (Homo sapiens, UniProt Q14004); test: Affinity Phenotypic Cellular interaction: (In-Cell western blot (using MDA-MB-231 cells)) EUB0001632a CDK13; assay type: functional, cell-based; parameters: mode of action Inhibitor, recommended concentration 1 uM
[2] = biological target: Inhibitor of nuclear factor kappa-B kinase subunit beta (Homo sapiens, UniProt O14920); test: Affinity Phenotypic Cellular interaction: (Inhibition of expression of ICAM-1 in HeLa cells) EUB0001492b IKBKB; assay type: functional, cell-based; parameters: mode of action Inhibitor, recommended concentration 1 uM
[3] = biological target: T1, Leucine-rich repeat serine/threonine-protein kinase 2 (Homo sapiens, UniProt Q5S007, G2019S); assay type: functional, subcellular, Brain, lysate
T1 sequence (Q5S007 whole entry G2019S): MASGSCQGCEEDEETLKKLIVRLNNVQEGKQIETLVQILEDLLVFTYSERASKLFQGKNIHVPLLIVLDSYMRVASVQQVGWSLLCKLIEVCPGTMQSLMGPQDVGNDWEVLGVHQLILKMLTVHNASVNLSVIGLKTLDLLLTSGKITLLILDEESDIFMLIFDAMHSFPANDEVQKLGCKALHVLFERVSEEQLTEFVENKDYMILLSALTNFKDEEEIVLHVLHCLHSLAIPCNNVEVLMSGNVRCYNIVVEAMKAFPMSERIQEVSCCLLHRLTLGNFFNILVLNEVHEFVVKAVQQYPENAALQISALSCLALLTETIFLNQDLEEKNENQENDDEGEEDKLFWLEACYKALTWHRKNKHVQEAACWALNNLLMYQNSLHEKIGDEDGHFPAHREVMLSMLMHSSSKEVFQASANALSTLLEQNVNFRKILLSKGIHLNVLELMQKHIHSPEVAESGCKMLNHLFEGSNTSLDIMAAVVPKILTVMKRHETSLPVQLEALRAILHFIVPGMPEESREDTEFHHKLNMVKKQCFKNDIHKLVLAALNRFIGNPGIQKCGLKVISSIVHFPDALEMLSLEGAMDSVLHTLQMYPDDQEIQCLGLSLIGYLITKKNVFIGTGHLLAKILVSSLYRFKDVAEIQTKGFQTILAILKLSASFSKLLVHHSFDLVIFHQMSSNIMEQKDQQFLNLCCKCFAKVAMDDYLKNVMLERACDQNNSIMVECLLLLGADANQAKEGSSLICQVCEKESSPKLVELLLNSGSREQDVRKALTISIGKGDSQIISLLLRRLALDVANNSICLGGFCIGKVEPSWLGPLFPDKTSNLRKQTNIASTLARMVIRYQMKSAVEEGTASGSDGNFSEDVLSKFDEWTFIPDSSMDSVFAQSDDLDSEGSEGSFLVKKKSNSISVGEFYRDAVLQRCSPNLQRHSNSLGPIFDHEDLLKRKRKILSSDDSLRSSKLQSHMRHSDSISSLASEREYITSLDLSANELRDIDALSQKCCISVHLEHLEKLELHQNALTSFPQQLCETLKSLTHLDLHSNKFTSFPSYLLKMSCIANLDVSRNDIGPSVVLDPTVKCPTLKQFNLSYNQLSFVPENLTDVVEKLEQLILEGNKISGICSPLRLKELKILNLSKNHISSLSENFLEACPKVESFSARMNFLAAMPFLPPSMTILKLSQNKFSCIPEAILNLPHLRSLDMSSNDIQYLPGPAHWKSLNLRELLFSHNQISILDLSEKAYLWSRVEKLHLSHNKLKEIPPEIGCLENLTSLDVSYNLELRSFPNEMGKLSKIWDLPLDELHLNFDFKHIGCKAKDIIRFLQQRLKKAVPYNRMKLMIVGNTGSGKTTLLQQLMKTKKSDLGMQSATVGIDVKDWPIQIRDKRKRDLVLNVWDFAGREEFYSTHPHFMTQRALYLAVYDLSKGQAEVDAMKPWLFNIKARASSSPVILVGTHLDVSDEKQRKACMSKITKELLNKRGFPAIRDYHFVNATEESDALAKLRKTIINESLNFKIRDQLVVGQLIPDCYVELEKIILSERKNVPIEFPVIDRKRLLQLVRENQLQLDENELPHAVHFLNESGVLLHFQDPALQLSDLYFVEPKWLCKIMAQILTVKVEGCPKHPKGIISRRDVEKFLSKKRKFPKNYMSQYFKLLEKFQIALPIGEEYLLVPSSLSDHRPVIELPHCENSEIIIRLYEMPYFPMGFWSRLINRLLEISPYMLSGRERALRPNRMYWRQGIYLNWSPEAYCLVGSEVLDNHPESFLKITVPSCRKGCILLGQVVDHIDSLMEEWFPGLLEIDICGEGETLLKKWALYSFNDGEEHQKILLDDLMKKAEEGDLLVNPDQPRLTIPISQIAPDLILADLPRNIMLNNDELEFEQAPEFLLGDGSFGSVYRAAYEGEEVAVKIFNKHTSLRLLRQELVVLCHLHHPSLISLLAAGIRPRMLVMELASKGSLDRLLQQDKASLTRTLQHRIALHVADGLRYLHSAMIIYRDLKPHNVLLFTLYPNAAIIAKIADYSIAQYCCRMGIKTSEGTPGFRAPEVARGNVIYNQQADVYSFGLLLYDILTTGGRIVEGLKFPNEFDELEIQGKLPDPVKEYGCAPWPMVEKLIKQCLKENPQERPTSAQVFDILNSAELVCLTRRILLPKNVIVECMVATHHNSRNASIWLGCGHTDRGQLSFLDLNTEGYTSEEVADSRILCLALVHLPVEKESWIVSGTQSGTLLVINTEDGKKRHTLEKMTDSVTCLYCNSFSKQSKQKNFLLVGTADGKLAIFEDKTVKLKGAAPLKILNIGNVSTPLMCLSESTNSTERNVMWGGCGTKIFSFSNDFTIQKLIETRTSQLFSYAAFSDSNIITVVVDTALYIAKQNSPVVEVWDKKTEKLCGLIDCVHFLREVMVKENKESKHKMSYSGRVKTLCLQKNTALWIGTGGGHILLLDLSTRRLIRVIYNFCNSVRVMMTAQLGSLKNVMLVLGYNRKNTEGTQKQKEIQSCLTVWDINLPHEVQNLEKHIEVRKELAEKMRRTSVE

[4] = biological target: T1, Leucine-rich repeat serine/threonine-protein kinase 2; assay type: functional, subcellular, Brain, lysate; remark: listed apart in the source
[5] = biological target: Mitotic checkpoint serine/threonine-protein kinase BUB1 (Homo sapiens, UniProt O43683); assay type: functional, cell-based, HeLa
[6] = biological target: Interleukin-1 receptor-associated kinase 4 (Homo sapiens, UniProt Q9NWZ3); test: Affinity Phenotypic Cellular interaction: (R848-induced IL-6 production in human whole blood) EUB0001558a IRAK4; assay type: functional, tissue-based; parameters: mode of action Inhibitor, recommended concentration 1 uM
[7] = biological target: T2, Cyclin-dependent kinase 8 (Homo sapiens, UniProt P49336); test: Affinity Phenotypic Cellular interaction: (Reporter-based luciferase assay (in LS174T cell line (xcexb2-catenin mutant) bearing activating WNT-pathway mutations)) EUB0001623a CDK8; assay type: functional; parameters: mode of action Inhibitor, recommended concentration 100 nM
T2 sequence (P49336 whole entry, looked up, change not shown): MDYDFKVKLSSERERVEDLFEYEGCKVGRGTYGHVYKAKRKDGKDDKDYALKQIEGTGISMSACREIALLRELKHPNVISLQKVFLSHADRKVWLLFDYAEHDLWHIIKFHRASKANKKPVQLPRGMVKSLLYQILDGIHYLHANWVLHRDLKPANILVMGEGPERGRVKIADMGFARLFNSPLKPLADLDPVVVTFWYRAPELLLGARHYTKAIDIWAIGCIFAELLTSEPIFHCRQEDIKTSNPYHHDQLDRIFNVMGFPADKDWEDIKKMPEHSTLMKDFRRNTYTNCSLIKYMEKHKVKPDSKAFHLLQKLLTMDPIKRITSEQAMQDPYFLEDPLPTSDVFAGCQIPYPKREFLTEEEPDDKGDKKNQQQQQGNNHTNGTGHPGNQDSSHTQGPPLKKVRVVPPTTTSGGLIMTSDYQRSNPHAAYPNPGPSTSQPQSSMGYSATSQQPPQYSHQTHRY

[8] = biological target: T2, Cyclin-dependent kinase 8; test: Affinity Phenotypic Cellular interaction: (Reporter-based luciferase assay (in COLO205 (APC mutant) bearing activating WNT-pathway mutations)) EUB0001623a CDK8; assay type: functional, cell-based; parameters: mode of action Inhibitor, recommended concentration 100 nM; conditions: colo 205
[9] = biological target: T2, Cyclin-dependent kinase 8; test: Affinity Phenotypic Cellular interaction: (Reporter-based luciferase assay (in PA-1 cell line bearing activating WNT-pathway mutations)) EUB0001623a CDK8; assay type: functional; parameters: mode of action Inhibitor, recommended concentration 100 nM
Activin receptor type-1 = Activin receptor type-1 (Homo sapiens, UniProt Q04771); test: Affinity Phenotypic Cellular interaction: (Western Blot (inhibition of ALK2 catalysed phosphorylation of SMAD1/5/8, BMP branch signalling)) EUB0001184b ACVRL1; assay type: functional; parameters: mode of action Inhibitor, recommended concentration 1 uM
[10] = biological target: T3, Casein kinase I isoform alpha (Homo sapiens, UniProt P48729); test: Affinity Phenotypic Cellular interaction: (Western Blot assay (inhibition of CSNK1D/E-mediated phosphorylation of DVL3, analyzed by change in phosphorylation-dependent mobility shift)) EUB0001205a CSNK1A1; assay type: functional; parameters: mode of action Inhibitor, recommended concentration 1 uM
T3 sequence (P48729 whole entry, canonical isoform): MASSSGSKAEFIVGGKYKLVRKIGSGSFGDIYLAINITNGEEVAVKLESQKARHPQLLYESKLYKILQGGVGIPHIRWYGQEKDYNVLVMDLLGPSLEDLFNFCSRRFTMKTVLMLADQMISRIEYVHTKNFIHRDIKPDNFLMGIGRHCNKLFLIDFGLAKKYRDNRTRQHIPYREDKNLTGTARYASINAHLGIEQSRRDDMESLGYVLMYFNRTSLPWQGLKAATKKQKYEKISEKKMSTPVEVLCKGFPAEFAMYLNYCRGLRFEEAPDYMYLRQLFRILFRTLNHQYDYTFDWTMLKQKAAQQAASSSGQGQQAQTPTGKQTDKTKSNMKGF

[11] = biological target: T4, Casein kinase I isoform delta (Homo sapiens, UniProt P48730); test: Affinity Phenotypic Cellular interaction: (Western Blot assay (inhibition of CSNK1D/E-mediated phosphorylation of DVL3, analyzed by change in phosphorylation-dependent mobility shift)) EUB0001205a CSNK1D; assay type: functional; parameters: mode of action Inhibitor, recommended concentration 1 uM
T4 sequence (P48730 whole entry, canonical isoform): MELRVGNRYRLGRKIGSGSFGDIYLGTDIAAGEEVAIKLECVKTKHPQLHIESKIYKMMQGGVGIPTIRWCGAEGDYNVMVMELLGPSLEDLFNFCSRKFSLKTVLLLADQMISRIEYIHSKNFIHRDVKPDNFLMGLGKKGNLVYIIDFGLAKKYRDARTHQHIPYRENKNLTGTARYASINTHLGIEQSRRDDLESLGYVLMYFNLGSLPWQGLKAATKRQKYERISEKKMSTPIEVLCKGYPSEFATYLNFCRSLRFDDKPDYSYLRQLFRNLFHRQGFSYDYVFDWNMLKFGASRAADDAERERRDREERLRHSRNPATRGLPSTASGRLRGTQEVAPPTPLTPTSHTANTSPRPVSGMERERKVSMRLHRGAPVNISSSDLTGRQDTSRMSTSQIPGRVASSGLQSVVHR

[12] = biological target: T5, Casein kinase I isoform epsilon (Homo sapiens, UniProt P49674); test: Affinity Phenotypic Cellular interaction: (Western Blot assay (inhibition of CSNK1D/E-mediated phosphorylation of DVL3, analyzed by change in phosphorylation-dependent mobility shift)) EUB0001205a CSNK1E; assay type: functional; parameters: mode of action Inhibitor, recommended concentration 1 uM
T5 sequence (P49674 whole entry, canonical isoform): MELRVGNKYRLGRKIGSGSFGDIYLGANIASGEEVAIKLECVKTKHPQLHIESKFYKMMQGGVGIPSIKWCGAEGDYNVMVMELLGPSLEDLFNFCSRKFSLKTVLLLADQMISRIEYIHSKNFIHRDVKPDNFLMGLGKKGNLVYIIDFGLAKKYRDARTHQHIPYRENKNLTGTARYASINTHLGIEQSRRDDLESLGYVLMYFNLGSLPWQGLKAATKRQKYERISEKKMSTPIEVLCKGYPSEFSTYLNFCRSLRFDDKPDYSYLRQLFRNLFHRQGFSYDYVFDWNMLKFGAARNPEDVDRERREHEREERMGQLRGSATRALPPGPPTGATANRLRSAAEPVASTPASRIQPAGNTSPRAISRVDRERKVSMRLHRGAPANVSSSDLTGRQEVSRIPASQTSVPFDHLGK

[13] = biological target: T3, Casein kinase I isoform alpha; assay type: functional, cell-based, T-REx-293
[14] = biological target: T3, Casein kinase I isoform alpha; assay type: functional
[15] = biological target: T4, Casein kinase I isoform delta; assay type: functional
[16] = biological target: T5, Casein kinase I isoform epsilon; assay type: functional
[17] = biological target: T6, RAF proto-oncogene serine/threonine-protein kinase (Homo sapiens, UniProt P04049); test: Affinity Phenotypic Cellular interaction: (Western blot assay (phosphorylation of ERK in HFF cells expressing BRAF/RAS wt)) EUB0000655a RAF1; assay type: functional, cell-based; parameters: mode of action Inhibitor, recommended concentration 1 uM
T6 sequence (P04049 whole entry): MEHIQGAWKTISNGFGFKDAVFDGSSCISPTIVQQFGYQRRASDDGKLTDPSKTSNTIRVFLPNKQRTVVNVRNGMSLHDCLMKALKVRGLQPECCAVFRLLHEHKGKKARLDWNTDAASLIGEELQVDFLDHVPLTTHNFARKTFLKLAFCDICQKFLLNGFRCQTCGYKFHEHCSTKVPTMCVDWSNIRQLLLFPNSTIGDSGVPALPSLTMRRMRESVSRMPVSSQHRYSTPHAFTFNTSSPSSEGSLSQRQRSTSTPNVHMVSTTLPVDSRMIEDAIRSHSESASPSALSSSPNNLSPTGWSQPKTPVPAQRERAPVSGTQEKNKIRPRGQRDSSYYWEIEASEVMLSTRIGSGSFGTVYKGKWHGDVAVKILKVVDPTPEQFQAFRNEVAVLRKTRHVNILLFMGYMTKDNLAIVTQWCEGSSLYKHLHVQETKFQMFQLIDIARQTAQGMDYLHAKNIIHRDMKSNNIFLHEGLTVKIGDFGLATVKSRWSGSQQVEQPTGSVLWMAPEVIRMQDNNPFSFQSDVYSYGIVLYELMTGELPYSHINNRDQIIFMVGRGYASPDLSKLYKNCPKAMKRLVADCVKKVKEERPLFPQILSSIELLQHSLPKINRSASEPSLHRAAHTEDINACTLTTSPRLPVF

[18] = biological target: T6, RAF proto-oncogene serine/threonine-protein kinase; test: Affinity Phenotypic Cellular interaction: (Western blot assay (phosphorylation of ERK in HMEC cells expressing BRAF/RAS wt)) EUB0000655a RAF1; assay type: functional, cell-based; parameters: mode of action Inhibitor, recommended concentration 1 uM
[19] = biological target: T6, RAF proto-oncogene serine/threonine-protein kinase; test: Affinity Phenotypic Cellular interaction: (Western blot assay (phosphorylation of ERK in PREC cells expressing BRAF/RAS wt)) EUB0000655a RAF1; assay type: functional, cell-based; parameters: mode of action Inhibitor, recommended concentration 1 uM
[20] = biological target: T6, RAF proto-oncogene serine/threonine-protein kinase; test: Affinity Phenotypic Cellular interaction: (Western blot assay (phosphorylation of ERK in HCT-116 cells expressing BRAF wt/K-Ras2(G13D))) EUB0000655a RAF1; assay type: functional, cell-based; parameters: mode of action Inhibitor, recommended concentration 1 uM
[21] = biological target: T6, RAF proto-oncogene serine/threonine-protein kinase; test: Affinity Phenotypic Cellular interaction: (Western blot assay (phosphorylation of ERK in HT-1080 cells expressing BRAF wt/N-Ras2(Q61K))) EUB0000655a RAF1; assay type: functional, cell-based; parameters: mode of action Inhibitor, recommended concentration 1 uM
[22] = biological target: T6, RAF proto-oncogene serine/threonine-protein kinase; test: Affinity Phenotypic Cellular interaction: (Western blot assay (phosphorylation of ERK in SKMEL2 cells expressing BRAF wt/N-Ras2(Q61R))) EUB0000655a RAF1; assay type: functional, cell-based, SK-MEL-2; parameters: mode of action Inhibitor, recommended concentration 1 uM
[23] = biological target: T6, RAF proto-oncogene serine/threonine-protein kinase; test: Affinity Phenotypic Cellular interaction: (Western blot assay (phosphorylation of ERK in A375P cells expressing BRAF V600E/RAS wt)) EUB0000655a RAF1; assay type: functional, cell-based; parameters: mode of action Inhibitor, recommended concentration 1 uM
[24] = biological target: T6, RAF proto-oncogene serine/threonine-protein kinase; test: Affinity Phenotypic Cellular interaction: (Western blot assay (phosphorylation of ERK in […] cells expressing BRAF V600E/RAS wt)) EUB0000655a RAF1; assay type: functional, cell-based, COLO 205; parameters: mode of action Inhibitor, recommended concentration 1 uM
[25] = biological target: T6, RAF proto-oncogene serine/threonine-protein kinase; test: Affinity Phenotypic Cellular interaction: (Western blot assay (phosphorylation of ERK in HT-29 cells expressing BRAF V600E/RAS wt)) EUB0000655a RAF1; assay type: functional, cell-based; parameters: mode of action Inhibitor, recommended concentration 1 uM
[26] = biological target: T6, RAF proto-oncogene serine/threonine-protein kinase; test: Affinity Phenotypic Cellular interaction: (Western blot assay (phosphorylation of ERK in MALME-3M cells expressing BRAF V600E/RAS wt)) EUB0000655a RAF1; assay type: functional, cell-based; parameters: mode of action Inhibitor, recommended concentration 1 uM

- EC50 (KiSS-1 receptor): > 10000 nM
Structure (SMILES): CNC(=N)NCCC[C@H](NC(=O)[C@H](CC(C)C)NC(=O)NNC(=O)[C@H](Cc1ccccc1)NC(=O)[C@H](CO)NC(=O)[C@H](CC(N)=O)NC(=O)[C@@H](Cc1cccnc1)NC(=O)[C@H](N)Cc1ccc(O)cc1)C(=O)NCC(N)=O [KISS1-543] (H-[dY][d3Pal]NSF[azaGly]L[Arg(Me)]G-NH2)

- EC50 [1]: 105 nM
Structure (SMILES): Cn1cc(-n2cnc3c(NCc4nc5cc(Cl)c(Cl)cc5[nH]4)nc(N4CCOCC4)nc32)cn1

- EC50 [2]: 700 nM
Structure (SMILES): CCC(F)(F)c1cc(N2CCC(S(C)(=O)=O)CC2)nc2sc(C(N)=O)c(N)c12 [BI-605906]

- IC50 [3]: 21 nM
- IC50 [4]: 103 nM
Structure (SMILES): N#Cc1cccc(-c2c[nH]c3ncnc(N4CCOCC4)c23)c1

- IC50 [5]: > 10 nM
Structure (SMILES): COc1cnccc1Nc1nc(-c2nn(Cc3c(F)cc(OCCO)cc3F)c3ccccc23)ncc1OC

- IC50 [6]: 190 nM
Structure (SMILES): CC(C)(O)[C@H](F)CN1Cc2cc(NC(=O)c3cnn4cccnc34)c(N3CCOCC3)cc2C1=O

- IC50 [7]: 32000 nM
- IC50 [8]: 9 nM
- IC50 [9]: 52 nM
Structure (SMILES): Cc1n[nH]c2ncc(C(=O)N3CCC[C@H]3c3ccc(Cl)cc3)cc12

- EC50 (Activin receptor type-1): < 100 nM
Structure (SMILES): COc1cc(-c2cncc(-c3ccc(N4CCN(C(C)C)CC4)cc3)c2C)cc(F)c1C(N)=O

- EC50 [10]: 200 nM
- EC50 [11]: 200 nM
- EC50 [12]: 200 nM
- IC50 [13]: 10500 nM
- IC50 [14]: 1600 nM
- IC50 [15]: 1600 nM
- IC50 [16]: 1600 nM
Structure (SMILES): CN1CCC(F)(Cn2cnc(-c3ccc(F)cn3)c2-c2ccnc3[nH]ccc23)CC1

- IC50 [17]: 11000 nM
- IC50 [18]: 5100 nM
- IC50 [19]: 6100 nM
- IC50 [20]: 1100 nM
- IC50 [21]: > 13000 nM
- IC50 [22]: 1500 nM
- IC50 [23]: 290 nM
- IC50 [24]: 28 nM
- IC50 [25]: 58 nM
- IC50 [26]: 190 nM
Structure (SMILES): CN(C)CCOc1ccc(-c2nc(-c3ccncc3)c(-c3ccc4c(c3)CC/C4=N\O)[nH]2)cc1 [SB590885]

— ChEMBL document CHEMBL5444388, “Affinity Phenotypic Cellular Literature for EUbOPEN Chemogenomic Library” (2024)
